Data taken from ChEMBL document CHEMBL1201862, “PubChem BioAssay data set” (2004).
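Protocol summary: plate cells (96-well), add compound at 5 concentrations, incubate 48 h, interpolate endpoints linearly. GI50 marks 50% less growth.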 Activity calls are given as the source filed them. Cut-off read from the data, not from the text of the source: active = GI50 up to about 1.1 µM and inactive = higher.

Columns and labels:
Assay in all cases: NCI anticancer screen, dose series, 48 h
HCT-15 = system: HCT-15
HOP-92 = system: HOP-92
TK-10 = system: TK-10
SF-539 = system: SF-539
NCI-H522 = system: NCI-H522
A549 = system: A549
SW-620 = system: SW-620
HCT-116 = system: HCT-116
SK-MEL-5 = system: SK-MEL-5
Malme-3M = system: Malme-3M
OVCAR-5 = system: OVCAR-5
OVCAR-8 = system: OVCAR-8
SN12C = system: SN12C
CCRF-CEM = system: CCRF-CEM

Structure (SMILES)	GI50 (HCT-15) [µM]	GI50 (HOP-92)	GI50 (TK-10)	GI50 (SF-539)	GI50 (NCI-H522)	GI50 (A549)	GI50 (SW-620)	GI50 (HCT-116)	GI50 (SK-MEL-5)	GI50 (Malme-3M)	GI50 (OVCAR-5)	GI50 (OVCAR-8)	GI50 (SN12C)	GI50 (CCRF-CEM)
[O-][S+]1Cc2ccccc2CS1 (stereo not given)	34.9	14 µM (inactive)	21.8 µM (inactive)	11.4 µM (inactive)	6.81 µM (inactive)	93.8 µM (inactive)	13.9 µM (inactive)	20.5 µM (inactive)	43.2 µM (inactive)	13.6 µM (inactive)	18.2 µM (inactive)	15 µM (inactive)	14 µM (inactive)	–
O=C(C#Cc1cnc(O)nc1O)c1ccccc1	12.3	13.2 µM (inactive)	13.8 µM (inactive)	4.04 µM (inactive)	–	24.7 µM (inactive)	6.76 µM (inactive)	7 µM (inactive)	12.7 µM (inactive)	3.34 µM (inactive)	18.9 µM (inactive)	10.5 µM (inactive)	4.37 µM (inactive)	1.97 µM (inactive)
O=c1[nH]c(=O)n(C2CC(O)C(CO)O2)cc1C#Cc1cc(F)cc(F)c1 (stereo not given)	> 100	–	–	> 100 µM (inactive)	> 100 µM (inactive)	> 100 µM (inactive)	> 100 µM (inactive)	–	> 100 µM (inactive)	> 100 µM (inactive)	> 100 µM (inactive)	> 100 µM (inactive)	> 100 µM (inactive)	> 100 µM (inactive)
COc1ccc2cc1Oc1ccc(cc1)CC1c3cc4c(cc3CCN1C)Oc1c(OC)cc3c(c1O4)C(C2)N(C)CC3 (stereo not given)	2.42	–	15.6 µM (inactive)	2.13 µM (inactive)	2.11 µM (inactive)	4.71 µM (inactive)	1.69 µM (inactive)	1.7 µM (inactive)	8.57 µM (inactive)	–	13.6 µM (inactive)	2.12 µM (inactive)	1.94 µM (inactive)	1.32 µM (inactive)
O=C1[C@H]2ON(c3ccccc3)C(c3ccc(Cl)cc3)[C@H]2C(=O)N1c1ccc(Cc2ccc(N3C(=O)[C@@H]4ON(c5ccccc5)C(c5ccc(Cl)cc5)[C@@H]4C3=O)cc2)cc1 (stereo not given in full)	> 100	–	> 100 µM (inactive)	> 100 µM (inactive)	> 100 µM (inactive)	> 100 µM (inactive)	> 100 µM (inactive)	> 100 µM (inactive)	61.7 µM (inactive)	40.7 µM (inactive)	> 100 µM (inactive)	> 100 µM (inactive)	> 100 µM (inactive)	> 100 µM (inactive)
O=C(O)c1ccccc1[Se][Se]c1ccccc1C(=O)O	55.1	39 µM (inactive)	> 100 µM (inactive)	23.4 µM (inactive)	37.9 µM (inactive)	51.1 µM (inactive)	> 100 µM (inactive)	37.4 µM (inactive)	> 100 µM (inactive)	47.2 µM (inactive)	–	43.5 µM (inactive)	53 µM (inactive)	56 µM (inactive)
COC(=O)/C(=N\Nc1nc(S)nn1N)C(C#N)c1ccccc1 (stereo not given)	> 100	–	> 100 µM (inactive)	–	> 100 µM (inactive)	> 100 µM (inactive)	> 100 µM (inactive)	> 100 µM (inactive)	> 100 µM (inactive)	> 100 µM (inactive)	> 100 µM (inactive)	> 100 µM (inactive)	> 100 µM (inactive)	> 100 µM (inactive)
[O-][S+]1c2ccccc2N=C(c2cccc3ccccc23)CC1c1cccc2ccccc12 (stereo not given)	15.1	–	31.2 µM (inactive)	19.5 µM (inactive)	15 µM (inactive)	18.8 µM (inactive)	17.7 µM (inactive)	17.3 µM (inactive)	5.52 µM (inactive)	22.9 µM (inactive)	31.6 µM (inactive)	18.9 µM (inactive)	16.6 µM (inactive)	20.5 µM (inactive)
